{"source": "patent US20090162413A1", "about": "(priority 1998, published 2009)", "key": {"[1]": {"tested_on": "human coronary artery endothelial cells (hCaEC)", "assay": "3H-thymidine uptake proliferation assay, hCaEC", "format": "cell-based", "settings": "Homo sapiens, Endothelial cell; read-out: hCaEC IC50 Mean ± SEM", "description": "Experiments were performed to investigate interactions between zotarolimus (ABT-578) and paclitaxel when administered in combination. The effects of paclitaxel and zotarolimus on the anti-proliferative activity of human coronary artery smooth muscle ([…]) and endothelial […] determined using an in vitro proliferation assay. The proliferation and migration of vascular smooth muscle cells into the vascular neointima is a characteristic pathologic response seen in restenotic lesions (Lafont and Libby, 1998). As a result, in vitro assays which specifically measure the anti-proliferative activity of candidate anti-restenotic compounds on human coronary artery smooth muscle and endothelial cells predict potential anti-restenotic activity in vivo. To determine if paclitaxel attenuated or augmented the activity of zotarolimus the effect of paclitaxel and zotarolimus alone and in combination on growth-factor induced proliferation was determined. Data were analyzed for additivity using an isobologram approach and a combination index analysis. An isobologram is a Cartesian plot of pairs of doses that, in combination, yield a specified level of effect. It is a convenient way of graphically displaying results of drug-combination and similar studies, because paired values of experimental points that fall below or above the line connecting the axial points indicate synergistic and non-synergistic interactions, respectively. Cell proliferation was monitored by following incorporation of ^3H-thymidine into newly synthesized DNA of cells stimulated by serum and growth factors. Exponentially growing […] were seeded into 96-well flat bottom tissue culture plates at 5,000 cells/well (10,000 cells/well for […]). The cells were allowed to attach overnight. […] PerkinElmer; Wellesley; MA) was added to each filter well and the plates were counted using a TopCount microplate scintillation counter (PerkinElmer). […] The concentration eliciting a specific anti-proliferative effect was determined using a four-parameter equation (equation 1): […]"}, "[2]": {"tested_on": "human coronary artery smooth muscle cells (hCaSMC)", "assay": "3H-thymidine uptake proliferation assay, hCaSMC", "format": "cell-based", "settings": "Homo sapiens; read-out: hCaSMC IC50 Mean ± SEM", "description": "Experiments were performed to investigate interactions between zotarolimus (ABT-578) and paclitaxel when administered in combination. The effects of paclitaxel and zotarolimus on the anti-proliferative activity of human coronary artery smooth muscle ([…]) and endothelial […] determined using an in vitro proliferation assay. The proliferation and migration of vascular smooth muscle cells into the vascular neointima is a characteristic pathologic response seen in restenotic lesions (Lafont and Libby, 1998). As a result, in vitro assays which specifically measure the anti-proliferative activity of candidate anti-restenotic compounds on human coronary artery smooth muscle and endothelial cells predict potential anti-restenotic activity in vivo. Compounds or combinations of compounds which attenuate growth factor-mediated human coronary artery smooth muscle cell ([…]) proliferation, as measured by the tritium incorporation assay in vitro, are candidate anti-restenotic agents. The tritium incorporation assay is an accurate and sensitive method to determine cell number and proliferation. […] The attenuation of zotarolimus's anti-proliferative activity by tacrolimus is a clear example of this effect (FIG. 10A). To determine the potential anti-restenotic activity of combinations of zotarolimus and paclitaxel, the proliferation of […] was measured in the presence of each compound and in combination. To determine if paclitaxel attenuated or augmented the activity of zotarolimus the effect of paclitaxel and zotarolimus alone and in combination on growth-factor induced proliferation was determined. Data were analyzed for additivity using an isobologram approach and a combination index analysis. An isobologram is a Cartesian plot of pairs of doses that, in combination, yield a specified level of effect. It is a convenient way of graphically displaying results of drug-combination and similar studies, because paired values of experimental points that fall below or above the line connecting the axial points indicate synergistic and non-synergistic interactions, respectively. Cell proliferation was monitored by following incorporation of ^3H-thymidine into newly synthesized DNA of cells stimulated by serum and growth factors. Exponentially growing […] were seeded into 96-well flat bottom tissue culture plates at 5,000 cells/well (10,000 cells/well for […]). The cells were allowed to attach overnight. The growth medium was removed the following day, and cells were washed twice with un-supplemented (basal) medium to remove traces of serum and growth factors. […] PerkinElmer; Wellesley; MA) was added to each filter well and the plates were counted using a TopCount microplate scintillation counter (PerkinElmer). […]"}}}
{"compound": "CO[C@H]1C[C@@H]2CC[C@@H](C)[C@@](O)(O2)C(=O)C(=O)N2CCCC[C@H]2C(=O)O[C@H]([C@H](C)C[C@@H]2CC[C@H](n3cnnn3)[C@H](OC)C2)CC(=O)[C@H](C)/C=C(\\C)[C@@H](O)[C@@H](OC)C(=O)[C@H](C)C[C@H](C)/C=C/C=C/C=C/1C", "note": "[zotarolimus]", "values": [{"measurement": "IC50", "setting": "[1]", "value": "3.6 ± 0.2", "unit": "nM"}, {"measurement": "IC50", "setting": "[2]", "value": "4.2 ± 1.7", "unit": "nM"}]}
